pIC50: −log10 of the molar value.
target: His-tagged recombinant human Gal-3 (hGal-3) (Homo sapiens (Human), UniProt P17931); assay: Gal-3 HTRF assay (His-tagged hGal-3 binding to B-ASF); details: read-out: hGal IC50;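 further: compounds preincubated 30 min with hGal-3, then 1 h with B-ASF, detection via terbium anti-His antibody and streptavidin d2. Control with B-ASF counts as full signal, omitting B-ASF as background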
Sequence (P17931 whole entry): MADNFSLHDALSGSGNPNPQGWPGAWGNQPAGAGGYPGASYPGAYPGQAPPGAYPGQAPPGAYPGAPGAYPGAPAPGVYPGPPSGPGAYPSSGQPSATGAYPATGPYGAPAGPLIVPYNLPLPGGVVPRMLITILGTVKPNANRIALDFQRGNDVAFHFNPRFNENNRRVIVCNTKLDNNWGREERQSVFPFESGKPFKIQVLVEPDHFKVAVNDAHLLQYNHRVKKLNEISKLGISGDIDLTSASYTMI

| SMILES | pIC50 |
| --- | --- |
| Cc1nc([C@@H]2O[C@H](CO)[C@H](O)[C@H](n3cc(-c4ccc5nccnc5c4)nn3)[C@H]2O)n(-c2cc(Cl)ccc2C(F)(F)F)n1 [Example A66] | 6.68 |
| Cc1nc([C@@H]2O[C@H](CO)[C@H](O)[C@H](n3cc(-c4cc(F)c(F)c(F)c4)nn3)[C@H]2O)n(-c2cc(Cl)c(F)cc2Cl)n1 [Example A67] | 7.41 |
| Cc1nc([C@@H]2O[C@H](CO)[C@H](O)[C@H](n3cc(-c4cc(F)c5ncccc5c4)nn3)[C@H]2O)n(-c2cc(Cl)ccc2C(F)(F)F)n1 [Example A68] | 6.81 |
| Cc1nc([C@@H]2O[C@H](CO)[C@H](O)[C@H](n3cc(-c4c(F)cc(Cl)cc4F)nn3)[C@H]2O)n(-c2cc(Cl)ccc2C(F)(F)F)n1 [Example A69] | 7.25 |
| Cc1nc([C@@H]2O[C@H](CO)[C@H](O)[C@H](n3cc(-c4cc(F)c5ccccc5c4)nn3)[C@H]2O)n(-c2ccc3ncsc3c2)n1 [Example A70] | 7.82 |
| Cc1nc([C@@H]2O[C@H](CO)[C@H](O)[C@H](n3cc(-c4ccc(Br)c(F)c4)nn3)[C@H]2O)n(-c2cc(Cl)cnc2C(F)(F)F)n1 [Example A71] | 7.31 |
| Cc1nc([C@@H]2O[C@H](CO)[C@H](O)[C@H](n3cc(-c4ccc(Cl)c(F)c4F)nn3)[C@H]2O)n(-c2cc(Cl)ccc2Cl)n1 [Example A72] | 7.96 |
| Cc1nc([C@@H]2O[C@H](CO)[C@H](O)[C@H](n3cc(-c4ccc(Cl)c(F)c4F)nn3)[C@H]2O)n(-c2cc(Cl)ccc2Br)n1 [Example A73] | 8.00 |
| CO[C@@H]1[C@@H](n2cc(-c3ccc(Br)c(F)c3)nn2)[C@@H](O)[C@@H](CO)O[C@H]1c1nc(C)nn1-c1ccc2ncsc2c1 [Example A75] | 6.47 |
| COc1cc(-c2cn([C@H]3[C@@H](O)[C@@H](CO)O[C@@H](c4nc(C)nn4-c4cc(Cl)ccc4C(F)(F)F)[C@@H]3O)nn2)ccc1Cl [Example A79] | 7.40 |

Reference: patent US11267811B2, “Small molecule inhibitors of galectin-3” (BRISTOL-MYERS SQUIBB COMPANY, priority 2017, dated 2022)
